ChEMBL document CHEMBL4033754, “Antiobesity Effect of a Short-Length Peptide YY Analogue after Continuous Administration in Mice” (ACS Med Chem Lett, 2017)
Where a SMILES comes first, the peptide text is derived from it. [ ]: non-standard residue; d: D form. The star is where a group is joined. ξ: configuration not given here. Cha = N[C@@H](CC1CCCCC1)C(=O)O; ξCha = NC(CC1CCCCC1)C(=O)O; Isobutyryl = CC(C)C(=O)*; Aib = CC(C)(N)C(=O)O; Bz = O=C(c1ccccc1)*; ξAbu = CCC(N)C(=O)O; Sar = CNCC(=O)O

Tests used:
[1] = molecular target: T1, Neuropeptide Y receptor type 2 (Homo sapiens, UniProt P49146); assay: Displacement of [125I]-PYY from human Y2R expressed in CHO cell membranes after 60 mins by liquid scintillation method
T1 sequence (P49146 whole entry): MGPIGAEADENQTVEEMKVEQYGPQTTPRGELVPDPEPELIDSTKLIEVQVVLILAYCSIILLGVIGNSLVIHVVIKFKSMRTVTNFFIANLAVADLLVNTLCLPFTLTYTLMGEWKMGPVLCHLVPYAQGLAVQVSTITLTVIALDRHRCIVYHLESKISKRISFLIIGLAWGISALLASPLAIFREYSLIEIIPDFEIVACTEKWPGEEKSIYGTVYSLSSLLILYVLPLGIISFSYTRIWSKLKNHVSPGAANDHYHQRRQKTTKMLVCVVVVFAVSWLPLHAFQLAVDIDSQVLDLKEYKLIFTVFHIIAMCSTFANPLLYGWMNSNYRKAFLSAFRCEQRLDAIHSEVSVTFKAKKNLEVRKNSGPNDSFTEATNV

[2] = molecular target: T1, Neuropeptide Y receptor type 2; assay: Agonist activity at human Y2R expressed in CHO cell membranes assessed as [35S]GTPgammaS binding after 120 mins by liquid scintillation method; type: functional
Mus musculus = assay: Antiobesity activity in lean C57BL/6J mouse assessed as inhibition of food intake at 1 mg/kg administered via subcutaneous osmotic pumps for 3 continuous days relative to control; details: sc

Row | SMILES | IC50 [1] [nM] | EC50 [2] [nM] | inhibition in vivo at 1 mg/kg (Mus musculus) [%]
1 | CCC(NC(=O)[C@H](CCCNC(=N)N)NC(=O)[C@H](CC(C)C)NC(=O)[C@H](CO)NC(C)=O)C(=O)NC(CC1CCCCC1)C(=O)NC(CC1CCCCC1)C(=O)N[C@@H](CC(N)=O)C(=O)N[C@@H](CC(C)C)C(=O)NC(C)(C)C(=O)N[C@H](C(=O)N[C@@H](CCCNC(=N)N)C(=O)N[C@@H](CCC(N)=O)C(=O)N[C@@H](CCCNC(=N)N)C(=O)NC(CC1CCCCC1)C(N)=O)[C@@H](C)O (stereo not given in full) | 8.8 | 3 | –
2 | CCC(NC(=O)[C@H](CCCNC(=N)N)NC(=O)[C@H](CC(C)C)NC(=O)[C@H](CO)NC(=O)[C@H](C)NC(C)=O)C(=O)NC(CC1CCCCC1)C(=O)NC(CC1CCCCC1)C(=O)N[C@@H](CC(N)=O)C(=O)N[C@@H](CC(C)C)C(=O)NC(C)(C)C(=O)N[C@H](C(=O)N[C@@H](CCCNC(=N)N)C(=O)N[C@@H](CCC(N)=O)C(=O)N[C@@H](CCCNC(=N)N)C(=O)NC(CC1CCCCC1)C(N)=O)[C@@H](C)O (stereo not given in full) (Ac-ASLR[ξAbu][ξCha][ξCha]NL[Aib]TRQR[ξCha]-NH2) | 6.8 | 4.6 | –
3 | CCC(NC(=O)[C@H](CCCNC(=N)N)NC(=O)[C@@H](CC(C)C)NC(=O)[C@H](CO)NC(C)=O)C(=O)NC(CC1CCCCC1)C(=O)NC(CC1CCCCC1)C(=O)N[C@@H](CC(N)=O)C(=O)N[C@@H](CC(C)C)C(=O)NC(C)(C)C(=O)N[C@H](C(=O)N[C@@H](CCCNC(=N)N)C(=O)N[C@@H](CCC(N)=O)C(=O)N[C@@H](CCCNC(=N)N)C(=O)NC(CC1CCCCC1)C(N)=O)[C@@H](C)O (stereo not given in full) | 11 | 1.3 | –
4 | CCC(NC(=O)[C@H](CCCNC(=N)N)NC(=O)[C@H](CC(C)C)NC(=O)[C@@H](CO)NC(C)=O)C(=O)NC(CC1CCCCC1)C(=O)NC(CC1CCCCC1)C(=O)N[C@@H](CC(N)=O)C(=O)N[C@@H](CC(C)C)C(=O)NC(C)(C)C(=O)N[C@H](C(=O)N[C@@H](CCCNC(=N)N)C(=O)N[C@@H](CCC(N)=O)C(=O)N[C@@H](CCCNC(=N)N)C(=O)NC(CC1CCCCC1)C(N)=O)[C@@H](C)O (stereo not given in full) | 12 | 5.5 | –
5 | CCC(NC(=O)[C@H](CCCNC(=N)N)NC(=O)[C@@H](CC(C)C)NC(=O)[C@@H](CO)NC(C)=O)C(=O)NC(CC1CCCCC1)C(=O)NC(CC1CCCCC1)C(=O)N[C@@H](CC(N)=O)C(=O)N[C@@H](CC(C)C)C(=O)NC(C)(C)C(=O)N[C@H](C(=O)N[C@@H](CCCNC(=N)N)C(=O)N[C@@H](CCC(N)=O)C(=O)N[C@@H](CCCNC(=N)N)C(=O)NC(CC1CCCCC1)C(N)=O)[C@@H](C)O (stereo not given in full) | 23 | 3.8 | –
6 | CCC(NC(=O)[C@H](CCCNC(=N)N)NC(=O)C(C)C)C(=O)NC(CC1CCCCC1)C(=O)NC(CC1CCCCC1)C(=O)N[C@@H](CC(N)=O)C(=O)N[C@@H](CC(C)C)C(=O)NC(C)(C)C(=O)N[C@H](C(=O)N[C@@H](CCCNC(=N)N)C(=O)N[C@@H](CCC(N)=O)C(=O)N[C@@H](CCCNC(=N)N)C(=O)NC(CC1CCCCC1)C(N)=O)[C@@H](C)O (stereo not given in full) (Isobutyryl-R[ξAbu][ξCha][ξCha]NL[Aib]TRQR[ξCha]-NH2) | 7.3 | 4.2 | –
7 | CCC(NC(=O)[C@H](CCCNC(=N)N)NC(=O)[C@H](CC(C)C)NC(C)=O)C(=O)NC(CC1CCCCC1)C(=O)NC(CC1CCCCC1)C(=O)N[C@@H](CC(N)=O)C(=O)N[C@@H](CC(C)C)C(=O)NC(C)(C)C(=O)N[C@H](C(=O)N[C@@H](CCCNC(=N)N)C(=O)N[C@@H](CCC(N)=O)C(=O)N[C@@H](CCCNC(=N)N)C(=O)NC(CC1CCCCC1)C(N)=O)[C@@H](C)O (stereo not given in full) (Ac-LR[ξAbu][ξCha][ξCha]NL[Aib]TRQR[ξCha]-NH2) | 17 | 6.4 | –

Stronger by IC50 [1], values ahead:

Row | IC50 [1] [nM] | EC50 [2] [nM] | SMILES | inhibition in vivo at 1 mg/kg (Mus musculus) [%]
8 | 5.7 | 4.6 | CCC(NC(=O)[C@H](CCCNC(=N)N)NC(=O)c1ccccc1)C(=O)NC(CC1CCCCC1)C(=O)NC(CC1CCCCC1)C(=O)N[C@@H](CC(N)=O)C(=O)N[C@@H](CC(C)C)C(=O)NC(C)(C)C(=O)N[C@H](C(=O)N[C@@H](CCCNC(=N)N)C(=O)N[C@@H](CCC(N)=O)C(=O)N[C@@H](CCCNC(=N)N)C(=O)NC(CC1CCCCC1)C(N)=O)[C@@H](C)O (stereo not given in full) (Bz-R[ξAbu][ξCha][ξCha]NL[Aib]TRQR[ξCha]-NH2) | –
9 | 5.4 | 1.2 | CC(=O)N[C@@H](CO)C(=O)N(C)[C@@H](C)C(=O)N[C@@H](CCCNC(=N)N)C(=O)N[C@@H](Cc1cnc[nH]1)C(=O)NC(CC1CCCCC1)C(=O)NC(CC1CCCCC1)C(=O)N[C@@H](CC(N)=O)C(=O)N[C@@H](CC(C)C)C(=O)NC(C)(C)C(=O)N[C@H](C(=O)N[C@@H](CCCNC(=N)N)C(=O)N[C@@H](CCC(N)=O)C(=O)N[C@@H](CCCNC(=N)N)C(=O)NC(CC1CCCCC1)C(N)=O)[C@@H](C)O (stereo not given in full) | –
10 | 4.8 | 1.3 | CC(=O)N[C@@H](CO)C(=O)NCC(=O)N[C@@H](CCCNC(=N)N)C(=O)N[C@@H](Cc1cnc[nH]1)C(=O)NC(CC1CCCCC1)C(=O)NC(CC1CCCCC1)C(=O)N[C@@H](CC(N)=O)C(=O)N[C@@H](CC(C)C)C(=O)NC(C)(C)C(=O)N[C@H](C(=O)N[C@@H](CCCNC(=N)N)C(=O)N[C@@H](CCC(N)=O)C(=O)N[C@@H](CCCNC(=N)N)C(=O)NC(CC1CCCCC1)C(N)=O)[C@@H](C)O (stereo not given in full) (Ac-SGRH[ξCha][ξCha]NL[Aib]TRQR[ξCha]-NH2) | –
11 | 2.8 | 1 | CC(=O)N[C@@H](CO)C(=O)N(C)CC(=O)N[C@@H](CCCNC(=N)N)C(=O)N[C@@H](Cc1cnc[nH]1)C(=O)NC(CC1CCCCC1)C(=O)NC(CC1CCCCC1)C(=O)N[C@@H](CC(N)=O)C(=O)N[C@@H](CC(C)C)C(=O)NC(C)(C)C(=O)N[C@H](C(=O)N[C@@H](CCCNC(=N)N)C(=O)N[C@@H](CCC(N)=O)C(=O)N[C@@H](CCCNC(=N)N)C(=O)NC(CC1CCCCC1)C(N)=O)[C@@H](C)O (stereo not given in full) (Ac-S[Sar]RH[ξCha][ξCha]NL[Aib]TRQR[ξCha]-NH2) | 13
12 | 2.7 | 2.5 | CCC(NC(=O)[C@H](CCCNC(=N)N)NC(=O)[C@H](CC(C)C)NC(=O)[C@H](CO)NC(=O)[C@H](C)N)C(=O)NC(CC1CCCCC1)C(=O)NC(CC1CCCCC1)C(=O)N[C@@H](CC(N)=O)C(=O)N[C@@H](CC(C)C)C(=O)NC(C)(C)C(=O)N[C@H](C(=O)N[C@@H](CCCNC(=N)N)C(=O)N[C@@H](CCC(N)=O)C(=O)N[C@@H](CCCNC(=N)N)C(=O)NC(CC1CCCCC1)C(N)=O)[C@@H](C)O (stereo not given in full) (H-ASLR[ξAbu][ξCha][ξCha]NL[Aib]TRQR[ξCha]-NH2) | –
13 | 1.7 | 0.74 | CC(C)C[C@H](NC(=O)[C@H](CO)NC(=O)[C@H](C)N)C(=O)N[C@@H](CCCNC(=N)N)C(=O)N[C@@H](Cc1cnc[nH]1)C(=O)N[C@@H](CC1CCCCC1)C(=O)N[C@@H](CC1CCCCC1)C(=O)N[C@@H](CC(N)=O)C(=O)N[C@@H](CC(C)C)C(=O)NC(C)(C)C(=O)N[C@H](C(=O)N[C@@H](CCCNC(=N)N)C(=O)N[C@@H](CCC(N)=O)C(=O)N[C@@H](CCCNC(=N)N)C(=O)N[C@@H](CC1CCCCC1)C(N)=O)[C@@H](C)O (H-ASLRH[Cha][Cha]NL[Aib]TRQR[Cha]-NH2) | –
14 | 1.5 | 0.61 | CC(=O)N[C@@H](CO)C(=O)N1CCC[C@@H]1C(=O)N[C@@H](CCCNC(=N)N)C(=O)N[C@@H](Cc1cnc[nH]1)C(=O)NC(CC1CCCCC1)C(=O)NC(CC1CCCCC1)C(=O)N[C@@H](CC(N)=O)C(=O)N[C@@H](CC(C)C)C(=O)NC(C)(C)C(=O)N[C@H](C(=O)N[C@@H](CCCNC(=N)N)C(=O)N[C@@H](CCC(N)=O)C(=O)N[C@@H](CCCNC(=N)N)C(=O)NC(CC1CCCCC1)C(N)=O)[C@@H](C)O (stereo not given in full) | 33
